The values below come from US10246456B2, “IRAK4 inhibiting agents” (BIOGEN MA INC., priority 2014, dated 2019).

Some results are limits rather than exact numbers.

The experiment concerns the target IRAK4 (Homo sapiens (Human), UniProt Q9NWZ3). In words: IRAK-4 AlphaScreen biochemical kinase assay. The settings on record: 1 nM IRAK4, 1 mM ATP, 3.5 h at RT. An outline of the steps:
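AlphaScreen read-out: streptavidin beads bind the biotinylated peptide and protein A beads bind the anti-phosphothreonine antibody, so energy transfer reports phosphorylation of the peptide. The kinase is human IRAK-4.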

IRAK4, sequence (Q9NWZ3 whole entry, species assumed): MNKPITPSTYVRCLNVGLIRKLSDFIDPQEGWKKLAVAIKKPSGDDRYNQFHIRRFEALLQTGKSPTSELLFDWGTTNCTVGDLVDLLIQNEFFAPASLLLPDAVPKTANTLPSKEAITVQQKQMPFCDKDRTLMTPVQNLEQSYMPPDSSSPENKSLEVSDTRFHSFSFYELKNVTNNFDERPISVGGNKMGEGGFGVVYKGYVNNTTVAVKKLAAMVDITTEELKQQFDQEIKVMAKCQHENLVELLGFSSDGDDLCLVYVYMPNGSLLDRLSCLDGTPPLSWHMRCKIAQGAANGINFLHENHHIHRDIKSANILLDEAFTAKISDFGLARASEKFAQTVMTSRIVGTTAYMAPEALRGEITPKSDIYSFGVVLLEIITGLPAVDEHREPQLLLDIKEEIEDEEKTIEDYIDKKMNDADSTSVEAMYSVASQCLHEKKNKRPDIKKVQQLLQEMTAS

As usually defined, the IC50 is the concentration needed to halve the response being measured. Low values mean greater potency, high ones weaker potency. The compound `CCC[C@@H](c1cccc(-c2ccc3cnn(-c4cccc(CO)n4)c3c2)n1)N(C)C` [Example 566, (S)-(6-(6-(6-(1-(dimethylamino)butyl)pyridin-2-yl)-1H-indazol-1-yl)pyridin-2-yl)methanol] yielded an IC50 of 100 to 1000 nM.
For `CNC(=O)C(N)c1cccc(-c2ccc3cnn(-c4cccc(CO)n4)c3c2)n1` (centres unmarked) [Example 567, 2-amino-2-(6-(1-(6-(hydroxymethyl)pyridin-2-yl)-1H-indazol-6-yl)pyridin-2-yl)-N-methylacetamide], the IC50 fell in the range of 100 to 1000 nM.
Take `C[S+]([O-])CC(N)c1cccc(-c2ccc3cnn(-c4cccc(CO)n4)c3c2)n1` (centres unmarked) [Example 568, (6-(6-(6-(1-amino-2-(methylsulfinyl)ethyl)pyridin-2-yl)-1H-indazol-1-yl)pyridin-2-yl)methanol]: the IC50 is 1000 to 10000 nM.
The compound `CCC[C@H](N)c1cccc(-c2cc(C(C)OC)c3cnn(-c4cccc(CO)n4)c3c2)n1` (stereo partly drawn) [Example 569, (6-(6-(6-((S)-1-aminobutyl)pyridin-2-yl)-4-(1-methoxyethyl)-1H-indazol-1-yl)pyridin-2-yl)methanol] had an IC50 of under 100 nM.
For the compound `CCC[C@H](N)c1cccc(-c2cc(Cl)c3cnn(-c4nccc(C(F)F)n4)c3c2)n1` [Example 570, (S)-1-(6-(4-chloro-1-(4-(difluoromethyl)pyrimidin-2-yl)-1H-indazol-6-yl)pyridin-2-yl)butan-1-amine], the IC50 is under 100 nM.
In the case of `OCc1cccc(-n2ncc3ccc(-c4cccc(C5CCCN5)n4)cc32)n1` (centres unmarked) [Example 571, (6-(6-(6-(pyrrolidin-2-yl)pyridin-2-yl)-1H-indazol-1-yl)pyridin-2-yl)methanol], the IC50 was 100 to 1000 nM.
`CCC[C@H](N)c1cccc(-c2cc(OC)c3cnn(-c4nccc(C(F)F)n4)c3c2)n1` [Example 572, (S)-1-(6-(1-(4-(difluoromethyl)pyrimidin-2-yl)-4-methoxy-1H-indazol-6-yl)pyridin-2-yl)butan-1-amine]: the IC50 is under 100 nM.
`CCC[C@H](N)c1cccc(-c2cc([C@@H]3CCCN3)c3cnn(-c4cccc(CO)n4)c3c2)n1` [Example 573, (6-(6-(6-((S)-1-aminobutyl)pyridin-2-yl)-4-((S)-pyrrolidin-2-yl)-1H-indazol-1-yl)pyridin-2-yl)methanol] showed a half-inhibitory concentration (IC50) of under 100 nM.
The same measure for `CCC[C@H](N)c1ccnc(-c2cc(OC)c3cnn(-c4cccc(CO)n4)c3c2)n1` [Example 574, (S)-(6-(6-(4-(1-aminobutyl)pyrimidin-2-yl)-4-methoxy-1H-indazol-1-yl)pyridin-2-yl)methanol]: under 100 nM.
`COCCC[C@H](N)c1cccc(-c2cc(-c3ccn(C)n3)c3cnn(-c4cccc(CO)n4)c3c2)n1` [Example 575, (S)-(6-(6-(6-(1-amino-4-methoxybutyl)pyridin-2-yl)-4-(1-methyl-1H-pyrazol-3-yl)-1H-indazol-1-yl)pyridin-2-yl)methanol] registered an IC50 of under 100 nM.
In the case of `CCC[C@@H](N)c1ccnc(-c2cc(OC)c3cnn(-c4cccc(CO)n4)c3c2)n1` [Example 576, (R)-(6-(6-(4-(1-aminobutyl)pyrimidin-2-yl)-4-methoxy-1H-indazol-1-yl)pyridin-2-yl)methanol], the IC50 is under 100 nM.
`Cc1cnc(-c2cc(-c3cccc([C@H](C)N)n3)cc3c2cnn3-c2cccc(CO)n2)o1` [Example 577, (S)-(6-(6-(6-(1-aminoethyl)pyridin-2-yl)-4-(5-methyloxazol-2-yl)-1H-indazol-1-yl)pyridin-2-yl)methanol] had an IC50 of under 100 nM.
The same measure for `CCC[C@H](N)c1cccc(-c2cc(-n3ccnn3)c3cnn(-c4cccc(CO)n4)c3c2)n1` [Example 578, (S)-(6-(6-(6-(1-aminobutyl)pyridin-2-yl)-4-(1H-1,2,3-triazol-1-yl)-1H-indazol-1-yl)pyridin-2-yl)methanol]: under 100 nM.
`CCC[C@H](N)c1cccc(-c2cc(COC(F)(F)F)c3cnn(-c4cccc(CO)n4)c3c2)n1` [Example 579, (S)-(6-(6-(6-(1-aminobutyl)pyridin-2-yl)-4-((trifluoromethoxy)methyl)-1H-indazol-1-yl)pyridin-2-yl)methanol]: the IC50 is under 100 nM.
